Values of other authors, collected in US20050158402A1, “Preparation of Chinese herbal composite recipe used in environmental sanitation” (priority 2004, published 2005).
Entries after “also recorded” stand apart in the source; their conditions may differ.

Experiments:
[1] = tested on: type A hemolytic Streptococcus
Shigella = details: 1% matrine, in vitro
Proteus = details: 1% matrine, in vitro
E. Coli = details: 1% matrine, in vitro
Staphylococcus aureaus = details: 1% matrine, in vitro
B-streptococcus = details: 1% matrine, in vitro
Shigella species = details: in vitro

For `Cc1cc(O)c(C(=O)CCC(C)C)c(=O)o1` [pogostone], the “inhibitive effects on Cryptococcus neoformans” value (Cryptococcus neoformans) is listed as “The pogostone show apparently inhibitive effects on fungi”, the “inhibitive effects on C. albicans” value (C. albicans) is listed as “The pogostone show apparently inhibitive effects on fungi” and the “inhibitive effects on Rhizopus stolonifer” value (Rhizopus stolonifer) is listed as “The pogostone show apparently inhibitive effects on fungi”. The “inhibit the growth of fungi such as Penicillum” value (Penicillum) was 22(7): 318) The pogostone can inhibit the growth of fungi and the “inhibitive effect on type A hemolytic Streptococcus” value [1] was “stolonifer. It shows certain degree of inhibitive effect on type”.
For `CC[C@@H]1[C@H]2CCCCN3[C@H]2[C@H](C[C@H]3[C@@H]2C[C@H](C)C(=O)O2)[C@@H]2[C@H]1OC(=O)[C@H]2C` [tuberostemonine], the “paralyze Ascarid” value (Ascarid) is given as “can paralyze”.
In the case of `O=C1CCC[C@@H]2[C@H]3CCCN4CCC[C@@H](CN12)[C@@H]34` [matrine], the “bacteria inhibitive effects on Shigella” value (Shigella) is given as “bacteria inhibitive effects on Shigella, E. Coli, Proteus,”, the “bacteria inhibitive effects on Proteus” value (Proteus) is given as “bacteria inhibitive effects on Shigella, E. Coli, Proteus,” and the “bacteria inhibitive effects on E. Coli” value (E. Coli) is given as “bacteria inhibitive effects on Shigella, E. Coli, Proteus,”. The “bacteria inhibitive effects on Staphylococcus aureaus” value (Staphylococcus aureaus) was “bacteria inhibitive effects on Shigella, E. Coli, Proteus,” and the “bacteria inhibitive effects on B-streptococcus” value (B-streptococcus) was “bacteria inhibitive effects on Shigella, E. Coli, Proteus,”.
For `C=C1[C@@H]2CC[C@@H](C2)[C@@]1(C)CC/C=C(/C)CO` [β -santol], the anti-bacteria effects (bacteria) is given as “The α - santol and β -santol show stronger anti-bacteria”.
For santol, the “effective to Shigella species” value (Shigella species) is given as “effective”.
In the case of `C/C(=C/CC[C@]1(C)C2C[C@@H]3[C@H](C2)C31C)CO` [α - santol], the anti-bacteria effects (bacteria) is listed as “The α - santol and β -santol show stronger anti-bacteria”.
In the case of evodiamine, the “anti-viruses effect on rats infected by Columbia SK viruses” value (Columbia SK viruses) is listed as “anti-viruses effect; also recorded: anti-virus effect”.
